Where two headings read alike, the source gives them in different places.
Key:
[1] = test system: osteoclast differentiation; assay: Inhibitory effect on osteoclast differentiation, co-culture of bone marrow cells and osteoblast, TRAP staining; format: cell-based, mouse; details: for inhibition at 1 µM: Mus musculus, Osteoclast, 168 h, read-out: inhibitory effect on osteoclast differentiation(%)
Description: The effect of the benzamidine derivative of the present invention on osteoclast formation and differentiation process was evaluated via co-culture with an osteoblast.
Tibia was aseptically ectomized from male 6 to 8-week-old ddY mice to harvest bone marrow cells by using a syringe (21G, Korea Green Cross). The bone marrow cells were suspended in 5 mL of an α-MEM medium (Gibco BRL Co., added with sodium bicarbonate (2.0 g/L), streptomycin (100 mg/L) and penicillin ([…]), filtered and then sterilized). The harvested cells were centrifuged at 600×g for 5 mins to collect the whole quantity. To remove the red blood cells in the bone marrow cells, 3 mL of Tris HCl (0.83% NH4Cl, pH 7.5) was added and well mixed. After centrifuging above cells, the numbers of the eukaryotic cells in the harvested bone marrow cells were counted and then immediately used for a co-culture system.
The progenitor bone and the parietal bone were aseptically ectomized from 1 to 2-day-old neonate ICR mice, washed with a phosphate butter solution (PBS) and treated with a mixed enzyme solution (of 0.2% collagenase and 0.1% dispase) sequentially (10, 10, 10, 20, 20 and 20 min), and then 3 to 6 groups of the cells which comprise lot of cells having the characteristics of the osteoblast were intensively collected and washed with a medium (a serum-free α-MEM). The washed cells were cultured in the α-MEM medium containing 10% FBS for 2 to 3 days. After subculturing, the collected cells were used for this experiment, and diluted to a concentration of 1×10^6 cells/mL for storage at −70[…].
The benzamidine derivative of the present invention was dissolved in a sterile distilled water or ethanol to dilute to a desired concentration. The final volume of the sample added to the cell culture medium was set at a ratio of 1:1000.
The bone marrow cells prepared in the above 1-1 and the osteoblast were co-cultured for osteoclast differentiation. Both the bone marrow cells (25,000 cells/cm^2) and the osteoblast (10,000 cells/cm^2) were plated in a 96-well plate using α-MEM medium containing FBS, and then cultured with the samples to be tested for 7 days. Differentiation factors, such as dexamethasone (10^−7 M) and vitamin D3 (10^−8 M), were also co-added to the medium from the first day of cultivation. The medium was changed with a fresh media containing a mixture of the samples and the differentiation factors every 2 to 3 days.
TRAP was used as a marker to measure the matured osteoclast in consideration of its characteristics showing a positive reaction to a TRAP staining solution. The TRAP staining solution was prepared in such the manner that 5 mg of naphtol AS-MS phosphate (sigma N-4875) as a substrate, and 25 mg of a coloring agent (Fast Red Violet LB salt) were dissolved in N,N-dimethylformamide (about 0.5 mL). 50 ml of a 0.1 N NaHCO3 buffer solution containing 50 mM tartaric acid (pH 5.0) was added thereto, and the mixture was stored at a refrigerator prior to use as a staining solution.
After culturing the cells for 7 days, the medium was removed from the wells, the cells were once washed with PBS, and then fixed with PBS containing 10% formalin for 2 to 5 min. The cells were fixed again in a mixed solution of ethanol and acetone (1/1) for about 1 min, and dried off. The cells were further treated by the TRAP staining solution for 15 mins and washed with water and dried off. The osteoclasts with 3 or more nuclei showing a TRAP-positive reaction were counted under a microscopic examination. Each of tests was confirmed over at least three times. The inhibitory effect on osteoclast differentiation of each experimental group, relative to negative controls, was expressed as a percentage (%).

MC3T3 = assay: Cytotoxicity test (MTT), MC3T3; format: cell-based; details: 10^−6M, 72 hrs, in comparison with the control group
Description: (§1) The cytotoxic effect of the benzamidine derivative of the present invention was evaluated by carrying out the experiment described below.
(§2) The test substance was diluted in an appropriate solvent at a 10^−2 M concentration. This substance was diluted in an appropriate culture medium for the cells used in the cytotoxicity test to a concentration of […], and loaded into a 96-well plate in 100 μl per well. The cell lines to be used in the cytotoxicity test were plated on a 96-well plate in a dose of 1.0×10^4 cells/1OO μl per well and cultured for 72 hrs. 25 μl of MTT [3-(4,5-dimethyl-2-thiazolyl)-2,5-diphenyl-2H-tetrazolium bromide] dissolved in PBS (2 mg/mL) were added before 4 hrs of the end of culture. After completion of the reaction, the plates were centrifuged, the medium was discarded and 100 μl of DMSO was added to dissolve formazan. Finally, the absorbance of the developed plates was measured at 540 nm. The survival rates of the cells were expressed as % concentration values in comparison with the control group.

calvaria = assay: Cytotoxicity test (MTT), calvaria; format: cell-based; details: 10^−6M, 72 hrs, in comparison with the control group
Description: as §1, §2

HOS = assay: Cytotoxicity test (MTT), HOS; format: cell-based; details: 10^−6M, 72 hrs, in comparison with the control group
Description: as §1, §2

[2] = 1 μm, 7 days co-culture, TRAP-positive osteoclasts with 3 or more nuclei, relative to negative controls

Row | Compound | survival rates of the cells (MC3T3) [%] | survival rates of the cells (calvaria) [%] | survival rates of the cells (HOS) [%] | inhibition at 1 µM [1, 2] [%] | also measured
1 | CC(C)c1nc(-c2ccc(OCCCCCOc3ccc(C(=N)NO)cc3)cc2)c(CCN2CCSCC2)s1 [Example 32, N-hydroxy-4-(5-{4-[2-isopropyl-5-(2-thiomorpholin-4-yl-ethyl)-thiazol-4-yl]-phenoxy}-pentyloxy)-benzamidine] |  |  |  |  | inhibition at 1 µM [1]: 97%
2 | CN1CCN(CCc2sc(C3CCCCC3)nc2-c2ccc(OCCCCCOc3ccc(C(=N)NO)cc3)cc2)CC1 [Example 34, N-hydroxy-4-[5-(4-{2-cyclohexyl-5-[2-(4-methyl-piperazin-1-yl)-ethyl]-thiazol-4-yl}-phenoxy)-pentyloxy]-benzamidine] |  |  |  |  | inhibition at 1 µM [1]: 100%
3 | N=C(NO)c1ccc(OCCCCCOc2ccc(-c3nc(C4CCCCC4)sc3CCNCCN3CCOCC3)cc2)cc1 [Example 35, N-hydroxy-4-[5-(4-{2-cyclohexyl-5-[2-(2-morpholin-4-yl-ethylamino)-ethyl]-thiazol-4-yl}-phenoxy)-pentyloxy]-benzamidine] | 98.6 | 81.6 | 115.7 |  | inhibition at 1 µM [1]: 100%
4 | Cc1nc(-c2ccc(OCCCCOc3ccc(C(=N)NO)cc3)cc2)c(CCN2CCOCC2)s1 [Example 44, N-hydroxy-4-(4-{4-[2-methyl-5-(2-morpholin-4-yl-ethyl)-thiazol-4-yl]-phenoxy}-butoxy)-benzamidine] | 101.3 | 90.6 | 105.6 |  | 
5 | N=C(N)c1ccc(OCCCCCOc2ccc(-c3nc(C4CCCCC4)sc3CCN3CCOCC3)cc2)cc1 [Example 45, 4-(5-{4-[2-cyclohexyl-5-(2-morpholin-4-yl-ethyl)-thiazol-4-yl]-phenoxy}-pentyloxy)-benzamidine] | 108.2 | 90.5 | 106.9 |  | 
6 | CNc1nc(-c2ccc(OCCCCCOc3ccc(C(=N)NO)cc3)cc2)c(CCN2CCN(C)CC2)s1 [Example 48, N-hydroxy-4-[5-(4-{2-methylamino-5-[2-(4-methyl-piperazin-1-yl)-ethyl]-thiazol-4-yl}-phenoxy)-pentyloxy]-benzamidine] |  |  |  | 60.6 | 
7 | CNc1nc(-c2ccc(OCCCCCOc3ccc(C(=N)NO)cc3)cc2)c(CCN2CCSCC2)s1 [Example 49, N-hydroxy-4-(5-{4-[2-methylamino-5-(2-thiomorpholin-4-yl-ethyl)-thiazol-4-yl]-phenoxy}-pentyloxy)-benzamidine] |  |  |  | 84 | 
8 | CNc1nc(-c2ccc(OCCCCCOc3ccc(C(=N)N)cc3)cc2)c(CCN2CCOCC2)s1 [Example 52, 4-(5-{4-[2-methylamino-5-(2-morpholin-4-yl-ethyl)-thiazol-4-yl]-phenoxy}-pentyloxy)-benzamidine] | 115.6 | 100.1 | 98.8 |  | 
9 | CN(C)c1nc(-c2ccc(OCCCCCOc3ccc(C(=N)NO)cc3)cc2)c(CCN2CCSCC2)s1 [Example 54, N-hydroxy-4-(5-{4-[2-dimethylamino-5-(2-thiomorpholin-4-yl-ethyl)-thiazol-4-yl]-phenoxy}-pentyloxy)-benzamidine] |  |  |  | 88 | 
10 | CC(C)C(=O)N(C)c1nc(-c2ccc(OCCCCCOc3ccc(C(=N)NO)cc3)cc2)c(CCN2CCOCC2)s1 [Example 55, N-hydroxy-4-(5-{4-[2-(isobutyryl-methyl-amino)-5-(2-morpholin-4-yl-ethyl)-thiazol-4-yl]-phenoxy}-pentyloxy)-benzamidine] |  |  |  | 69 | 
11 | N=C(NO)c1ccc(OCCCCCOc2ccc(-c3nc(N4CCOCC4)sc3CCN3CCSCC3)cc2)cc1 [Example 60, N-hydroxy-4-(5-{4-[2-morpholin-4-yl-5-(2-thiomorpholin-4-yl-ethyl)-thiazol-4-yl]-phenoxy}-pentyloxy)-benzamidine] |  |  |  | 88 | 
12 | CN1CCN(CCc2sc(N3CCOCC3)nc2-c2ccc(OCCCCCOc3ccc(C(=N)NO)cc3)cc2)CC1 [Example 61, N-hydroxy-4-[5-(4-{5-[2-(4-methyl-piperazin-1-yl)-ethyl]-2-morpholin-4-yl-thiazol-4-yl}-phenoxy)-pentyloxy]-benzamidine] |  |  |  | 76 | 
13 | N=C(N)c1ccc(OCCCCCOc2ccc(-c3nc(N4CCOCC4)sc3CCN3CCOCC3)cc2)cc1 [Example 64, 4-(5-{4-[2-morpholin-4-yl-5-(2-morpholin-4-yl-ethyl)-thiazol-4-yl]-phenoxy}-pentyloxy)-benzamidine] | 119.8 | 99.4 | 107.8 |  | 
14 | Cc1nc(-c2ccc(OCCCCCOc3ccc(C(=N)NO)cc3)cc2)c(CCN(CC(C)C)C(=O)c2cccnc2)s1 [Example 66, N-hydroxy-4-{5-[4-(5-{2-[isobutyl-(pyridine-3-carbonyl)-amino]-ethyl}-2-methyl-thiazol-4-yl)-phenoxy]-pentyloxy}-benzamidine] | 111.1 | 99.0 | 105.9 |  | 
15 | CC(C)c1nc(-c2ccc(OCCCCCOc3ccc(C(=N)NO)cc3)cc2)c(CCN(C(=O)c2ccncc2)C2CC2)s1 [Example 67, N-hydroxy-4-{5-[4-(5-{2-[cyclopropyl-(pyridine-4-carbonyl)-amino]-ethyl}-2-isopropyl-thiazol-4-yl)-phenoxy]-pentyloxy}-benzamidine] | 80.7 | 95.3 | 97.5 |  | 
16 | N=C(NO)c1ccc(OCCCCCOc2ccc(-c3nc(C4CCCCC4)sc3CCN(C(=O)c3cccnc3)C3CC3)cc2)cc1 [Example 68, N-hydroxy-4-{5-[4-(2-cyclohexyl-5-{2-[cyclopropyl-(pyridine-3-carbonyl)-amino]ethyl}-thiazol-4-yl)-phenoxy]-pentyloxy}-benzamidine] | 90.3 | 91.4 | 82.9 |  | 
17 | CNC(=O)c1sc(C)nc1-c1ccc(OCCCCCOc2ccc(C(=N)NO)cc2)cc1 [Example 69] |  |  |  |  | inhibitory effect on osteoclast differentiation(%) [1, 2]: 90.3%
18 | Cc1nc(-c2ccc(OCCCCCOc3ccc(C(=N)NO)cc3)cc2)c(C(=O)NC(C)C)s1 [Example 70, N-hydroxy-4-{5-[4-(5-isopropylcarbamoyl-2-methyl-thiazol-4-yl)-phenoxy]-pentyloxy}-benzamidine] |  |  |  | 84.8 | 
19 | Cc1nc(-c2ccc(OCCCCCOc3ccc(C(=N)NO)cc3)cc2)c(C(=O)NCCCn2ccnc2)s1 [Example 71, N-hydroxy-4-{5-[4-(5-{3-imidazol-1-yl-propylcarbamoyl}-2-methyl-thiazol-4-yl)-phenoxy]-pentyloxy}-benzamidine] |  |  |  | 90.4 | 
20 | N-hydroxy-(5-{4-[5-(2-isobutyrylamino-ethyl)-2-methyl-thiazol-4-yl]-phenoxy}-pentyloxy)-benzamidine [Example 65] |  |  |  |  | inhibitory effect on osteoclast differentiation(%) [1, 2]: 29%
